Values quoted from earlier work, collected in paper PMC9026148, “Pre-Clinical Study Evaluating Novel Protein Phosphatase 2A Activators as Therapeutics for Neuroblastoma” (Cancers, 2022).

Tested on: CYP3A4
Parameters: method as in PMID 32954276
Details: at 1 h, cited from earlier work

## O=S(=O)(N[C@@H]1CCC[C@H](N2c3ccccc3Oc3ccccc32)[C@H]1O)c1ccc(OC(F)(F)F)cc1 [NZ-8-061]
  time-dependent inhibition of CYP3A4 (fold shift): > 30 fold
time-dependent inhibition
  IC50: < 1 µM
